Reference: the supplement of paper PMC10307832

How the values were obtained:
Assay in all cases: relative viability (nuclei count vs DMSO), 5 days (fraction); higher = more cells survive
NCI-H1734 = system: NCI-H1734
Procedure, shortened: (§1)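 Five library-drug doses in √10 steps were combined with a fixed anchor-drug dose, or a single drug was given alone, by pin tool to lung cancer cell lines in 1536-well plates the day after seeding. Nuclei were stained and counted after 5 days. Relative viability is the nuclei count in treated wells over that in vehicle wells, taken as the median of duplicate plates.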

NCI-H1755 = system: NCI-H1755
Procedure, shortened: as §1

PC-14 = system: PC-14
Procedure, shortened: as §1

NCI-H2228 = system: NCI-H2228
Procedure, shortened: as §1

H3255 = system: H3255
Procedure, shortened: as §1

NCI-H1355 = system: NCI-H1355
Procedure, shortened: as §1

NCI-H2342 = system: NCI-H2342
Procedure, shortened: as §1

NCI-H661 = system: NCI-H661
Procedure, shortened: as §1

LK-2 = system: LK-2
Procedure, shortened: as §1

NCI-H2405 = system: NCI-H2405
Procedure, shortened: as §1

NCI-H1650 = system: NCI-H1650
Procedure, shortened: as §1

PC-3 [JPC-3] = system: PC-3 [JPC-3]
Procedure, shortened: as §1

NCI-H520 = system: NCI-H520
Procedure, shortened: as §1

NCI-H1975 = system: NCI-H1975
Procedure, shortened: as §1

CAL-12T = system: CAL-12T
Procedure, shortened: as §1

EKVX = system: EKVX
Procedure, shortened: as §1

NCI-H322M = system: NCI-H322M
Procedure, shortened: as §1

HCC-827 = system: HCC-827
Procedure, shortened: as §1

RERF-LC-KJ = system: RERF-LC-KJ
Procedure, shortened: as §1

LCLC-97TM1 = system: LCLC-97TM1
Procedure, shortened: as §1

HCC-15 = system: HCC-15
Procedure, shortened: as §1

`CC(=O)O[C@@]12CO[C@@H]1C[C@H](O)[C@@]1(C)C(=O)[C@H](O)C3=C(C)[C@@H](OC(=O)[C@H](O)[C@@H](NC(=O)OC(C)(C)C)c4ccccc4)C[C@@](O)([C@@H](OC(=O)c4ccccc4)[C@H]21)C3(C)C` [Docetaxel] + O=C(CCCCCCC(=O)Nc1ccccc1)NO [Vorinostat] (partner 1 µM) showed a relative viability (NCI-H1734; first compound 0.0002 µM) of 0.618, a relative viability (NCI-H1734; first compound 0.000632 µM) of 0.506 and a relative viability (NCI-H1734; first compound 0.002 µM) of 0.304. The relative viability (NCI-H1734; first compound 0.006325 µM) was 0.328, the relative viability (NCI-H1734; first compound 0.02 µM) was 0.207 and the relative viability (NCI-H1755; first compound 0.0002 µM) was 0.791. For the same compound, the relative viability (NCI-H1755; first compound 0.000632 µM) was 0.728, the relative viability (NCI-H1755; first compound 0.002 µM) was 0.433 and the relative viability (NCI-H1755; first compound 0.006325 µM) was 0.479. It also gave a relative viability (NCI-H1755; first compound 0.02 µM) of 0.373, a relative viability (PC-14; first compound 0.0002 µM) of 0.725 and a relative viability (PC-14; first compound 0.000632 µM) of 0.245. For the same compound, the relative viability (PC-14; first compound 0.002 µM) was 0.079, the relative viability (PC-14; first compound 0.006325 µM) was 0.0579 and the relative viability (PC-14; first compound 0.02 µM) was 0.0282. For the same compound, the relative viability (NCI-H2228; first compound 0.0002 µM) was 0.565, the relative viability (NCI-H2228; first compound 0.000632 µM) was 0.145 and the relative viability (NCI-H2228; first compound 0.002 µM) was 0.168. The relative viability (NCI-H2228; first compound 0.006325 µM) was 0.151, the relative viability (NCI-H2228; first compound 0.02 µM) was 0.145 and the relative viability (H3255; first compound 0.0002 µM) was 0.785. The relative viability (H3255; first compound 0.000632 µM) was 0.826, the relative viability (H3255; first compound 0.002 µM) was 0.629 and the relative viability (H3255; first compound 0.006325 µM) was 0.345. For the same compound, the relative viability (H3255; first compound 0.02 µM) was 0.346, the relative viability (NCI-H1355; first compound 0.0002 µM) was 0.631 and the relative viability (NCI-H1355; first compound 0.000632 µM) was 0.626. For the same compound, the relative viability (NCI-H1355; first compound 0.002 µM) was 0.382, the relative viability (NCI-H1355; first compound 0.006325 µM) was 0.244 and the relative viability (NCI-H1355; first compound 0.02 µM) was 0.176. The relative viability (NCI-H2342; first compound 0.0002 µM) was 0.625, the relative viability (NCI-H2342; first compound 0.000632 µM) was 0.662 and the relative viability (NCI-H2342; first compound 0.002 µM) was 0.569. It also gave a relative viability (NCI-H2342; first compound 0.006325 µM) of 0.445, a relative viability (NCI-H2342; first compound 0.02 µM) of 0.475 and a relative viability (NCI-H661; first compound 0.0002 µM) of 0.777. For the same compound, the relative viability (NCI-H661; first compound 0.000632 µM) was 0.856, the relative viability (NCI-H661; first compound 0.002 µM) was 0.728 and the relative viability (NCI-H661; first compound 0.006325 µM) was 0.493. For the same compound, the relative viability (NCI-H661; first compound 0.02 µM) was 0.373, the relative viability (LK-2; first compound 0.0002 µM) was 0.313 and the relative viability (LK-2; first compound 0.000632 µM) was 0.217. For the same compound, the relative viability (LK-2; first compound 0.002 µM) was 0.15, the relative viability (LK-2; first compound 0.006325 µM) was 0.183 and the relative viability (LK-2; first compound 0.02 µM) was 0.152. It also gave a relative viability (NCI-H2405; first compound 0.0002 µM) of 0.839, a relative viability (NCI-H2405; first compound 0.000632 µM) of 0.567 and a relative viability (NCI-H2405; first compound 0.002 µM) of 0.546. The relative viability (NCI-H2405; first compound 0.006325 µM) was 0.394, the relative viability (NCI-H2405; first compound 0.02 µM) was 0.335 and the relative viability (NCI-H1650; first compound 0.0002 µM) was 0.54. The relative viability (NCI-H1650; first compound 0.000632 µM) was 0.499, the relative viability (NCI-H1650; first compound 0.002 µM) was 0.226 and the relative viability (NCI-H1650; first compound 0.006325 µM) was 0.196. The relative viability (NCI-H1650; first compound 0.02 µM) was 0.162, the relative viability (PC-3 [JPC-3]; first compound 0.0002 µM) was 0.673 and the relative viability (PC-3 [JPC-3]; first compound 0.000632 µM) was 0.58. For the same compound, the relative viability (PC-3 [JPC-3]; first compound 0.002 µM) was 0.395, the relative viability (PC-3 [JPC-3]; first compound 0.006325 µM) was 0.343 and the relative viability (PC-3 [JPC-3]; first compound 0.02 µM) was 0.21. It also gave a relative viability (NCI-H520; first compound 0.0002 µM) of 0.714, a relative viability (NCI-H520; first compound 0.000632 µM) of 0.463 and a relative viability (NCI-H520; first compound 0.002 µM) of 0.281. It also gave a relative viability (NCI-H520; first compound 0.006325 µM) of 0.187, a relative viability (NCI-H520; first compound 0.02 µM) of 0.158 and a relative viability (NCI-H1975; first compound 0.0002 µM) of 0.723. It also gave a relative viability (NCI-H1975; first compound 0.000632 µM) of 0.378, a relative viability (NCI-H1975; first compound 0.002 µM) of 0.283 and a relative viability (NCI-H1975; first compound 0.006325 µM) of 0.232. It also gave a relative viability (NCI-H1975; first compound 0.02 µM) of 0.161, a relative viability (CAL-12T; first compound 0.0002 µM) of 0.411 and a relative viability (CAL-12T; first compound 0.000632 µM) of 0.35. For the same compound, the relative viability (CAL-12T; first compound 0.002 µM) was 0.255, the relative viability (CAL-12T; first compound 0.006325 µM) was 0.142 and the relative viability (CAL-12T; first compound 0.02 µM) was 0.12. The relative viability (EKVX; first compound 0.0002 µM) was 0.638, the relative viability (EKVX; first compound 0.000632 µM) was 0.6 and the relative viability (EKVX; first compound 0.002 µM) was 0.428. For the same compound, the relative viability (EKVX; first compound 0.006325 µM) was 0.29, the relative viability (EKVX; first compound 0.02 µM) was 0.229 and the relative viability (NCI-H322M; first compound 0.0002 µM) was 0.801. For the same compound, the relative viability (NCI-H322M; first compound 0.000632 µM) was 0.843, the relative viability (NCI-H322M; first compound 0.002 µM) was 0.906 and the relative viability (NCI-H322M; first compound 0.006325 µM) was 0.711. The relative viability (NCI-H322M; first compound 0.02 µM) was 0.481, the relative viability (HCC-827; first compound 0.0002 µM) was 0.367 and the relative viability (HCC-827; first compound 0.000632 µM) was 0.903. For the same compound, the relative viability (HCC-827; first compound 0.002 µM) was 0.528, the relative viability (HCC-827; first compound 0.006325 µM) was 0.279 and the relative viability (HCC-827; first compound 0.02 µM) was 0.238. The relative viability (RERF-LC-KJ; first compound 0.0002 µM) was 0.591, the relative viability (RERF-LC-KJ; first compound 0.000632 µM) was 0.628 and the relative viability (RERF-LC-KJ; first compound 0.002 µM) was 0.368. It also gave a relative viability (RERF-LC-KJ; first compound 0.006325 µM) of 0.189, a relative viability (RERF-LC-KJ; first compound 0.02 µM) of 0.151 and a relative viability (LCLC-97TM1; first compound 0.0002 µM) of 0.364. For the same compound, the relative viability (LCLC-97TM1; first compound 0.000632 µM) was 0.187, the relative viability (LCLC-97TM1; first compound 0.002 µM) was 0.116 and the relative viability (LCLC-97TM1; first compound 0.006325 µM) was 0.104. The relative viability (LCLC-97TM1; first compound 0.02 µM) was 0.0624, the relative viability (HCC-15; first compound 0.0002 µM) was 0.856 and the relative viability (HCC-15; first compound 0.000632 µM) was 0.574. It also gave a relative viability (HCC-15; first compound 0.006325 µM) of 0.227 and a relative viability (HCC-15; first compound 0.02 µM) of 0.131.
